In one assay the target is T1, K103NNY181C mutant reverse transcriptase (Human immunodeficiency virus type 1 group M subtype B, UniProt P04585, K690N/Y768C).
T1 construct: mutations that occur in the reverse transcriptase segment of the pol gene
Put plainly: Reverse transcriptase enzymatic assay (PicoGreen), K103N/Y181C mutant RT. The assay is classed as biochemical, HIV-1. The conditions noted are these: IC50 mut (nM), mutant (K103N/Y181C) reverse transcriptase, enzymatic assay of Example 24. The procedure, abridged: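 HIV-1 RT (2.5 nM final) pre-incubated 15 min at room temperature with inhibitor, then reacted 50 min at 37 °C with poly rC 45 nM, dG15 4.5 nM, dGTP 3.6 μM in Tris/HCl pH 7.8, 1% DMSO. Final inhibitor 10 μM to 0.508 nM; EDTA-quenched, PicoGreen fluorescence read at 485/520 nm.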
For `CC(C)(C)c1ccc(-n2nnnc2SCC(=O)Nc2ccc(NC(=O)c3ccccc3Cl)cc2Cl)c(Cl)c1` [Compound 7013], the IC50 (commonly the concentration needed to halve the response being measured) was determined as 121 nM.
Regarding `CC(C)(C)c1ccc(-n2nnnc2SCC(=O)Nc2ccc(NC(=O)c3cccc(O)c3)cc2Cl)c(Cl)c1` [Compound 7012], the IC50 is 128 nM.
The molecule `CC(C)(C)c1ccc(-n2nnnc2SCC(=O)Nc2ccc(NC(=O)Cc3ccncc3)cc2Cl)c(Cl)c1` [Compound 7030] returned an IC50 of 38 nM.
`CC(C)(C)c1ccc(-n2nnnc2SCC(=O)Nc2ccc(NC(=O)C3CCCC3)cc2Cl)c(Cl)c1` [Compound 7021]: the IC50 amounted to 262 nM.
On the same count and under the same terms, the same measure for `CC(C)(C)c1ccc(-n2nnnc2SCC(=O)Nc2ccc(NC(=O)NCc3ccccc3)cc2Cl)c(Cl)c1` [Compound 7008]: 428 nM.

Still in this assay, the particulars now being: IC50 mut, K103N/Y181C mutant reverse transcriptase, enzymatic assay of Example 24.
`CC(C)(C#Cc1ccc(NC(=O)CSc2nnnn2-c2ccc(C3CC3)cc2Cl)c(Cl)c1)NCC1CC1` [Compound 4128]: 27 nM corresponded to half-maximal inhibition (IC50). This counts as double-digit nanomolar.
The same measure, in the same setting: the figure for `CC(C)(C#Cc1ccc(NC(=O)CSc2nnnn2-c2cc(C3CC3)ccc2Cl)c(Cl)c1)NC(=O)CN` [Compound 4214] is 19.5 nM; for `CC(C)(C#Cc1ccc(NC(=O)CSc2nnnn2-c2ccc(C3CC3)cc2Cl)c(Cl)c1)NC(=O)C1CC1` [Compound 4079] it is 6.8 nM; for `CC(C)(C#Cc1ccc(NC(=O)CSc2nnnn2-c2ccc(C3CC3)cc2Cl)c(Cl)c1)OCCNC1CC1` [Compound 4117] it is 52 nM.

Staying with this assay, now noted: IC50 mut, mutant reverse transcriptase, enzymatic assay of Example 24.
`COC(=O)c1ccc(-c2ccc(NC(=O)CSc3nnnn3-c3ccc(C(C)(C)C)cc3Cl)c(Cl)c2)cc1` [Compound 2008]: the IC50 was 39 nM.
Still for that read-out and setting: the same measure for `CC(C)(C)c1ccc(-n2nnnc2SCC(=O)Nc2ccc(-c3ccc(OCCN4CCC(C(=O)O)CC4)cc3)cc2Cl)c(Cl)c1` [Compound 2040]: 36 nM.
On to `CC(C)(C)c1ccc(-n2nnnc2SCC(=O)Nc2ccc(-c3ccc(OCCN4CC[C@@H](O)C4)cc3)cc2Cl)c(Cl)c1` [Compound 2041], for which the half-maximal inhibitory concentration (IC50) turned out to be 28 nM.
The same measure, in the same setting: the same measure for `Cc1ccc(-n2c(C)cnc2SCC(=O)Nc2ccc(-c3ccc(CC(=O)O)cc3)cc2Cl)c(Cl)c1` [Compound 1009]: 549 nM; for `CC(C)(C)c1ccc(-n2nnnc2SCC(=O)Nc2ccc(C(=O)NC3CCN(Cc4ccccc4)CC3)cc2Cl)c(Cl)c1` [Compound 6009]: 73 nM.
Same read-out and setting: the figure for `CC(C)(C)c1ccc(-n2nnnc2SCC(=O)Nc2ccc(OCC(=O)NC3CCN(Cc4ccccc4)CC3)cc2Cl)c(Cl)c1` [Compound 5008] is 861 nM; for `O=C(CSc1nnnn1-c1ccc(C2CC2)cc1Cl)Nc1ccc(C(=O)NS(=O)(=O)c2ccccc2)cc1Cl` [Compound 6037] it is 111 nM; for `O=C(CSc1nnnn1-c1cc(C(F)(F)F)ccc1Cl)Nc1ccc(-c2ccc(OCCN3CCCC3)cc2)c(F)c1Cl` [Compound 2058] it is 25 nM.
Same read-out and setting: the same measure for `C/C(=C\c1ccc(NC(=O)CSc2nnnn2-c2ccc(C3CC3)cc2Cl)c(Cl)c1)C(=O)O` [Compound 3041]: 94 nM.
`Cc1ccc(-n2nnnc2SCC(=O)Nc2ccc(-c3ccc(CC(=O)NS(C)(=O)=O)cc3)cc2Cl)c(Cl)c1` [Compound 2017] yielded a half-maximal inhibitory concentration (IC50) of 38 nM.
Still for that read-out and setting: the figure for `CC(C)(C)c1ccc(-n2nnnc2SCC(=O)Nc2ccc(C(=O)NCCc3ccc(O)cc3)cc2Cl)c(Cl)c1` [Compound 6017] is 33 nM.
